Measurements reported in PubChem BioAssay (NCI).
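The compound was tested at five concentrations on cells cultured in 96-well plates, with a 48-hour exposure period. TGI marks complete inhibition of growth.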

How the values were obtained:
Test in all cases: NCI anticancer screen, dose series, 48 h
XF 498 CNS = system: XF 498 CNS
DMS 273 small cell lung = system: DMS 273 small cell lung
UO-31 renal = system: UO-31 renal
A549 NSCLC = system: A549 NSCLC
HCT-116 colon = system: HCT-116 colon
OVCAR-8 ovarian = system: OVCAR-8 ovarian
IGROV1 ovarian = system: IGROV1 ovarian
RPMI-8226 leukemia = system: RPMI-8226 leukemia
NCI-H460 lung = system: NCI-H460 lung
ACHN renal = system: ACHN renal
UACC-257 melanoma = system: UACC-257 melanoma
HCT-15 colon = system: HCT-15 colon
HOP-62 NSCLC = system: HOP-62 NSCLC
SN12C renal = system: SN12C renal
NCI-H23 lung = system: NCI-H23 lung
HL-60(TB) leukemia = system: HL-60(TB) leukemia
K-562 leukemia = system: K-562 leukemia
RXF 393 renal = system: RXF 393 renal
SW-620 colon = system: SW-620 colon
SK-OV-3 ovarian = system: SK-OV-3 ovarian
LOX IMVI melanoma = system: LOX IMVI melanoma
SNB-19 CNS = system: SNB-19 CNS
HOP-18 NSCLC = system: HOP-18 NSCLC
UACC-62 melanoma = system: UACC-62 melanoma
SF-539 CNS = system: SF-539 CNS
SF-295 CNS = system: SF-295 CNS
SK-MEL-5 melanoma = system: SK-MEL-5 melanoma
M19-MEL melanoma = system: M19-MEL melanoma
KM12 colon = system: KM12 colon
M14 melanoma = system: M14 melanoma
NCI-H522 lung = system: NCI-H522 lung
SK-MEL-28 melanoma = system: SK-MEL-28 melanoma
U251 CNS = system: U251 CNS
MOLT-4 leukemia = system: MOLT-4 leukemia
786-0 renal = system: 786-0 renal
MALME-3M melanoma = system: MALME-3M melanoma
CCRF-CEM leukemia = system: CCRF-CEM leukemia
DMS 114 small cell lung = system: DMS 114 small cell lung
SK-MEL-2 melanoma = system: SK-MEL-2 melanoma
COLO 205 colon = system: COLO 205 colon
TK-10 renal = system: TK-10 renal
DLD-1 colon = system: DLD-1 colon
OVCAR-3 ovarian = system: OVCAR-3 ovarian
EKVX NSCLC = system: EKVX NSCLC
NCI-H226 lung = system: NCI-H226 lung

In the case of `O=c1ccc2ccc(O)c3c4c(=O)ccc5ccc(O)c(c1c23)c54`, the TGI (XF 498 CNS) was 3.27 µM, the TGI (DMS 273 small cell lung) was 3.97 µM and the TGI (UO-31 renal) was 3.71 µM. The TGI (A549 NSCLC) was 12.2 µM, the TGI (HCT-116 colon) was 2830 nM and the TGI (OVCAR-8 ovarian) was 10.7 µM. It also gave a TGI (IGROV1 ovarian) of 3.64 µM, a TGI (RPMI-8226 leukemia) of 9.12 µM and a TGI (NCI-H460 lung) of 11.6 µM. It also gave a TGI (ACHN renal) of 6.75 µM, a TGI (UACC-257 melanoma) of 6.71 µM and a TGI (HCT-15 colon) of 2690 nM. It also gave a TGI (HOP-62 NSCLC) of 4.86 µM, a TGI (SN12C renal) of 4.37 µM and a TGI (NCI-H23 lung) of 3.46 µM. For the same compound, the TGI (HL-60(TB) leukemia) was 3.64 µM, the TGI (K-562 leukemia) was 5.59 µM and the TGI (RXF 393 renal) was 2420 nM. It also gave a TGI (SW-620 colon) of 5.08 µM, a TGI (SK-OV-3 ovarian) of 8.61 µM and a TGI (LOX IMVI melanoma) of 2630 nM. The TGI (SNB-19 CNS) was 4.85 µM, the TGI (HOP-18 NSCLC) was 3.72 µM and the TGI (UACC-62 melanoma) was 1650 nM. The TGI (SF-539 CNS) was 3.2 µM, the TGI (SF-295 CNS) was 9.29 µM and the TGI (SK-MEL-5 melanoma) was 2590 nM. It also gave a TGI (M19-MEL melanoma) of 2160 nM, a TGI (KM12 colon) of 3.43 µM and a TGI (M14 melanoma) of 3.22 µM. For the same compound, the TGI (NCI-H522 lung) was 3.08 µM, the TGI (SK-MEL-28 melanoma) was 5.28 µM and the TGI (U251 CNS) was 3.3 µM. It also gave a TGI (MOLT-4 leukemia) of 8.53 µM, a TGI (786-0 renal) of 4.81 µM and a TGI (MALME-3M melanoma) of 1830 nM. For the same compound, the TGI (CCRF-CEM leukemia) was 3.77 µM, the TGI (DMS 114 small cell lung) was 3.63 µM and the TGI (SK-MEL-2 melanoma) was 3.34 µM. For the same compound, the TGI (COLO 205 colon) was 3.73 µM, the TGI (TK-10 renal) was 5.86 µM and the TGI (DLD-1 colon) was 3.13 µM. For the same compound, the TGI (OVCAR-3 ovarian) was 11.7 µM, the TGI (EKVX NSCLC) was 8.46 µM and the TGI (NCI-H226 lung) was 5.28 µM.
